Assay results taken from patent US7090834B1, “Vascular endothelial cell growth factor variants and uses thereof” (Genentech, Inc., priority 1999, dated 2006).
Values belong to the molecule of their own block, whether it stands above or below them.

What was measured:
[1] = tested on: ERK1 and ERK2 in HUVEC cells; test: Activation of MAP kinases, ERK1/ERK2 phosphorylation Western blot; type: cell-based, human; conditions: 50 ng/ml or 10 ng/ml, 5 minutes, FIG. 12A
Procedure: (§1) Passage 4–7 HUVEC cells (Cell Systems, Kirkland, Wash.) were grown in Cell System's complete medium (AZ0-500) with 10% fetal calf serum and growth factors on gelatin-coated dishes and made quiescent by 14 hour starvation in 0.2% serum. […] The HUVEC cells were then lysed in 0.5–1 ml RIPA buffer containing 0.1 mM sodium orthovanadate, 5 mM para-nitrophenylphosphate, 10 mM sodium fluoride, 0.5 micromolar okadaic acid and a protease inhibitor cocktail (Roche MB 1836145). Western blot analysis was then conducted, probing for phosphorylated ERK1 or ERK2 using anti-phospho ERK antiserum (Promega).

PLC-gamma in HUVEC cells = test: PLC-gamma tyrosine phosphorylation after immunoprecipitation; type: cell-based, human; conditions: 20 ng/ml, 5 minutes, FIG. 13A
Procedure: In order to determine which VEGF receptor(s) are involved in PLC-gamma activation in primary endothelial cells, HUVEC cells were treated with native VEGF or VEGF receptor-selective variants and PLC-gamma phosphorylation was assessed after immunoprecipitation.
Passage 4–7 HUVEC cells (Cell Systems, Kirkland, Wash.) were grown in Cell System's complete medium (AZ0-500) with 10% fetal calf serum and growth factors on gelatin-coated dishes and made quiescent by 14 hour starvation in 0.2% serum. […] The cells were then lysed in 0.5–1 ml RIPA buffer containing 0.1 mM sodium orthovanadate, 5 mM para-nitrophenylphosphate, 10 mM sodium fluoride, 0.5 micromolar okadaic acid and a protease inhibitor cocktail (Roche MB 1836145). PLC-gamma was then immunoprecipitated from whole cell lysates using monoclonal antibodies (Upstate Biotechnology) and analyzed for tyrosine phosphorylation (FIG. 13A) or lysates were immunoprecipitated with monoclonal antibodies against p85 PI 3′-kinase (purchased from Transduction Labs (P13020) and Neomarkers (MS424-P)) and tested for phosphotyrosine using phosphotyrosine antibodies PY20 or E120H (Transduction Labs) (FIG. 13B). Immunoprecipitation was conducted as follows. Protein A/G beads (Pierce) were blocked for nonspecific protein binding in 50 mM HEPES pH 7.2, 0.1% TX-100, 150 mM NaCl and 1 mg/ml ovalbumin for 30 minutes. Antibodies were precoupled in the same buffer for 1 hour at 4° C. with head over end rotation and beads were washed 3 times in lysis buffer. Beads were added to the lysates and rotated overnight. Beads were washed sequentially in 50 mM Tris pH 7.6, 150 mM NaCl, 1% TX-100, 1 mM CaCl2; 50 mM Tris pH 7.6, 500 mM NaCl, 0.1% TX-100, 1 mM CaCl2 and 50 mM Tris pH 7.6, 150 mM NaCl, 0.05% TX-100, 1 mM CaCl2. Beads were then resuspended in 2× sample buffer and boiled. Supernatants were applied directly to 4–12% Tris-Glycine gradient gels (Novex).

HUVEC cells = test: HUVEC migration, modified Boyden chamber assay; type: cell-based, human; conditions: 18 hour assay, FIG. 14A
Procedure: One of the central aspects of VEGF action on endothelial cells is its ability to act as a chemoattractant and stimulate the migration of endothelial cells. HUVEC cell migration was analyzed in a modified Boyden chamber assay as follows.
Falcon 8.0 micron filter inserts (Falcon 3097) were coated with type 1 collagen (VITROGEN, COHESION). HUVEC (obtained from Cell Systems, <passage 8) were grown in Cell Systems complete media (4ZO-500) with 10% FCS. Cells were trypsinized and transferred to EBM (Endothelial basal media, Clonetics) with 0.1% BSA for the assay. Cells were plated at 5×10^4 per upper chamber. […] The assay was routinely an 18 hour assay at 37° C. For the LY294002 inhibitor experiments, cells were allowed to adhere for 30 minutes prior to addition of the inhibitor. 20 minutes after inhibitor addition, VEGF was added to the bottom well and the assay was allowed to proceed for only 4 hours to avoid the occurrence of apoptosis associated with the treatment of these primary cells with LY294002 (purchased from Biomol).
Cells were removed from the upper side of the membrane by scraping with a polyurethane swab and then the remaining cells on the bottom side of the membrane were fixed with methanol. Cells were stained with Yo-Pro Iodide nuclear stain (Molecular Probes) and counted under low power fluorescence using an Image-Pro cell recognition program.

corneal angiogenesis = test: Corneal pocket angiogenesis assay; type: in vivo, Sprague-Dawley rats; conditions: rat, pellet with 200 ng growth factor, day 6, FIGS. 15A and 15B
Procedure: Assays were performed as described by Polyerini et al., Methods Enzymol., 198:440–450 (1991) with the following modifications. Sprague-Dawley rats were anesthetized using a gas (isoflurane)/injectable ketamine (80 mg/kg)/xylazine (15 mg/kg) combination. The eyes were gently proptosed and secured in place using nontraumatic forceps. With a #15 blade, a 1.5 mm incision was made slightly below the center of the cornea. Using a micro spatula (ST80017, ASSI), the incision was carefully blunt-dissected through the stroma toward the outer canthus of the eye. […] After surgery, the eyes were coated with gentamicin ointment. At day 6, the animals were injected with high molecular weight FITC-dextran and euthanized to allow for visualization of the vasculature. Corneal whole mounts were made of the enucleated eyes and measurements of the neovascular area completed using computer-assisted image analysis (Image-Pro Plus).

[2] = tested on: p38 stress-activated MAP kinase in HUVEC cells; test: p38 MAP kinase phosphorylation Western blot; type: cell-based, human; conditions: 50 ng/ml or 10 ng/ml, 5 minutes, FIG. 12B
Procedure: VEGF has previously been reported to stimulate the stress-activated, p38 MAP kinase [Rousseau et al., Oncogene, 15:2169–2177 (1997); Yu et al., J. Cell. Phys., 178:235–246 (1999)].
as §1, with “The” for “The HUVEC”, “The phosphorylation state of p38 stress-activated MAP kinase” for “Western blot analysis”, “assessed with an” for “then conducted, probing for phosphorylated ERK1 or ERK2 using”, “p38 specific” for “ERK”, “(NEB).” for “(Promega).”

[3] = molecular target: T1, Flt-1 transfected NIH3T3 cells (Homo sapiens, UniProt P17948); test: Receptor-transfected cell binding assay, Flt-1; conditions: FIG. 6
T1 construct: expressed in transfected cells; host or cells: NIH3T3 cells
Procedure: (§2) The assay is described in detail in Example 7. Each point represents the average of duplicate determinations, and errors are estimated to be less than 15% of the values.
(§3) KDR or Flt-1 transfected NIH3T3 cells were prepared as described by Fuh et al., J. Biol. Chem., 273:11187–11204 (1998). The transfected cells were maintained in F12 media supplemented with 10% FBS and 400 ug/ml G418 (GibcoBRL). For the binding assays, the cells were plated in 12-wells plates at 1×10^6/well to reach confluency next day. The cells were then washed and blocked in Hank's buffered saline (HBS) with 1% BSA for one hour before adding ^125I-VEGF (1–109) (prepared by standard chloramine-T methods) and increasing concentrations of unlabeled VEGF variants. 50 pM and 10 pM of labeled VEGF (1–109) was used for KDR and Flt-1 cell binding, respectively. The plates were incubated at 4° C. for three hours and then washed two times with HBS with 0.5% BSA. The bound, labeled VEGF was collected by solubilizing the washed cells with 1N NaOH, and then counted in a gamma-counter (Isodata, ICN).

[4] = tested on: MMP-9 secretion by human aorta smooth muscle cells (ASMC); test: Matrix metalloprotease 9 assay (gelatin zymography); type: cell-based; conditions: 40 ng/ml, 24 hours, compared to native VEGF(1–109) or PlGF, FIG. 11
Procedure: An assay that measures the secretion of matrix metalloprotease 9 following activation of Flt-1 expressed on human smooth aorta muscle cells was conducted (Wang and Keiser, Circ. Res., 83:832–840 (1998)). Human aorta smooth muscle cells (ASMC) (Clonetics) were maintained in SM2 media (Clonetics) at 37° C. in 5% CO2 and 95% ambient air in the presence of 10% fetal bovine serum in 6-well polystyrene plates (Becton-Dickinson). When, cells attained 90% confluence, they were growth-arrested for 24 hours in serum-free medium containing 0.2% bovine serum albumin (BSA). […] After electrophoresis, proteins were renatured by incubation of the gels for 30 minutes at room temperature in Renaturing Buffer and in Developing Buffer (Novex) for overnight at 37° C. The gels were stained with 0.25% Coomassie Brilliant Blue (Sigma). Gelatinase activity was identified as lightly stained or clear bands following destaining.
Shown is a representative zymogram of one of two independent experiments. Fold change represents the relative band density of the VEGF(1–109)-, VEGF(1–109) variants- or PlGF-treated groups versus the vehicle-treated (PBS) control.

KDR receptor = test: RIA assay, binding to KDR receptor; conditions: compared to native VEGF, FIG. 8A
Procedure: (§4) Various assays were conducted to examine the properties and biological activities of the I43A/I46A/Q79A/I83A Flt-sel variant. For example, quantitative binding measurements were carried out using a soluble radio-immuno receptor-binding assay (RIA), as described in Example 6 above.

Flt-1 receptor = test: RIA assay, binding to FLT-1 receptor; conditions: FIG. 8B
Procedure: as §4

[5] = molecular target: T2, KDR transfected NIH3T3 cells (Homo sapiens, UniProt P35968); test: Receptor-transfected cell binding assay, KDR; conditions: displacement of 125I-VEGF, 4° C., three hours, FIG. 5
T2 construct: expressed in transfected cells; host or cells: NIH3T3 cells
Procedure: as §2, §3

Chain of KDR receptor (P35968 20-327 limits assumed): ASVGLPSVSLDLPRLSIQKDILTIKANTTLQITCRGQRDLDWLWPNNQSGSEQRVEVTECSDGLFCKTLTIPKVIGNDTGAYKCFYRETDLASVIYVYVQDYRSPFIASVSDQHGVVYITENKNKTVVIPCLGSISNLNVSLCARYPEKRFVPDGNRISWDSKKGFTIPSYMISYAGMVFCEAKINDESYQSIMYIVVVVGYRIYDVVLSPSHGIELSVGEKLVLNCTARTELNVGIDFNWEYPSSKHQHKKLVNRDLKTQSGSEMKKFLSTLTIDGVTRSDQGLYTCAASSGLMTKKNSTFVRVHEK
T2 sequence (P35968 20-1356): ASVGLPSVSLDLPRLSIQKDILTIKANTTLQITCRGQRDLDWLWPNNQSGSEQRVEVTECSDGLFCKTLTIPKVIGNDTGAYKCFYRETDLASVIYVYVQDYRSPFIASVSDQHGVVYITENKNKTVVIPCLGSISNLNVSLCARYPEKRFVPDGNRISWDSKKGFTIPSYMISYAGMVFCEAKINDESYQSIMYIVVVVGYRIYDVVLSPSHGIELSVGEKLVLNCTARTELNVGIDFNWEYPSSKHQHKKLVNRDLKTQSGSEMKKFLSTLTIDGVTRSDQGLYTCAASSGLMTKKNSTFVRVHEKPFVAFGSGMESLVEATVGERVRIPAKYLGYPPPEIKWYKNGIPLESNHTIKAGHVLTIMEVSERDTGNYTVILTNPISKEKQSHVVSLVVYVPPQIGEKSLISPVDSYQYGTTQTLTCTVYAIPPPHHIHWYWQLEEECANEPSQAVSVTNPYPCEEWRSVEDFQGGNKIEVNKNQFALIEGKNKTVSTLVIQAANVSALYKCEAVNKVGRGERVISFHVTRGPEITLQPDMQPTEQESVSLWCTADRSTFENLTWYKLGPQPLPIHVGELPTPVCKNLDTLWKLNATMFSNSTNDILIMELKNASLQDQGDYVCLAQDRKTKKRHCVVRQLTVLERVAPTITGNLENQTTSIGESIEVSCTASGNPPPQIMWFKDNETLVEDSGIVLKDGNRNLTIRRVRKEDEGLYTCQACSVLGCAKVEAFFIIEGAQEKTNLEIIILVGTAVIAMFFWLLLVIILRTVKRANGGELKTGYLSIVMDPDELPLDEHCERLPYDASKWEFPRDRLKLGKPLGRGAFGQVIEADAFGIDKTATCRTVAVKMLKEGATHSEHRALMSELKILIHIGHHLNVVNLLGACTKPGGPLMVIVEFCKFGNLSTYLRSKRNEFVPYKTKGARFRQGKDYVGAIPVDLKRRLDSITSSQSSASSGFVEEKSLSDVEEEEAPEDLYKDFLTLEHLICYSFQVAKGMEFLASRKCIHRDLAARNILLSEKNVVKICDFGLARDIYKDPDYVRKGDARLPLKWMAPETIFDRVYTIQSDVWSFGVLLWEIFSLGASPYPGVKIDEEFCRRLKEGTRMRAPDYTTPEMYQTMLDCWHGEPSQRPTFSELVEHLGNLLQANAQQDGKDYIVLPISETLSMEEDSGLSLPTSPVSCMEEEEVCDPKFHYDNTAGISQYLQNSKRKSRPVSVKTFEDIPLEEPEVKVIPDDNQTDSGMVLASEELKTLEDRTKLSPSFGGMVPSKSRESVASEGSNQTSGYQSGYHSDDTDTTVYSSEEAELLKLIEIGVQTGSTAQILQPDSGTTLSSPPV
Chain of Flt-1 receptor (P17948 27-331 limits assumed): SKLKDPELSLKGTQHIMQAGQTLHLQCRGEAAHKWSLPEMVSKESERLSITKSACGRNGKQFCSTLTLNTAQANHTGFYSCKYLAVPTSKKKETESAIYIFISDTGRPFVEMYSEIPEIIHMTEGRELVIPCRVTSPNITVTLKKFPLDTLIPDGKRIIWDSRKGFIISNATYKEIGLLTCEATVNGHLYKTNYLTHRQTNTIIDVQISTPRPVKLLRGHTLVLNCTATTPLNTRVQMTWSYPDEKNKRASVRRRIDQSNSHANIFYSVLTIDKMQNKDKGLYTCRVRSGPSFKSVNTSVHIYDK
T1 sequence (P17948 27-1338): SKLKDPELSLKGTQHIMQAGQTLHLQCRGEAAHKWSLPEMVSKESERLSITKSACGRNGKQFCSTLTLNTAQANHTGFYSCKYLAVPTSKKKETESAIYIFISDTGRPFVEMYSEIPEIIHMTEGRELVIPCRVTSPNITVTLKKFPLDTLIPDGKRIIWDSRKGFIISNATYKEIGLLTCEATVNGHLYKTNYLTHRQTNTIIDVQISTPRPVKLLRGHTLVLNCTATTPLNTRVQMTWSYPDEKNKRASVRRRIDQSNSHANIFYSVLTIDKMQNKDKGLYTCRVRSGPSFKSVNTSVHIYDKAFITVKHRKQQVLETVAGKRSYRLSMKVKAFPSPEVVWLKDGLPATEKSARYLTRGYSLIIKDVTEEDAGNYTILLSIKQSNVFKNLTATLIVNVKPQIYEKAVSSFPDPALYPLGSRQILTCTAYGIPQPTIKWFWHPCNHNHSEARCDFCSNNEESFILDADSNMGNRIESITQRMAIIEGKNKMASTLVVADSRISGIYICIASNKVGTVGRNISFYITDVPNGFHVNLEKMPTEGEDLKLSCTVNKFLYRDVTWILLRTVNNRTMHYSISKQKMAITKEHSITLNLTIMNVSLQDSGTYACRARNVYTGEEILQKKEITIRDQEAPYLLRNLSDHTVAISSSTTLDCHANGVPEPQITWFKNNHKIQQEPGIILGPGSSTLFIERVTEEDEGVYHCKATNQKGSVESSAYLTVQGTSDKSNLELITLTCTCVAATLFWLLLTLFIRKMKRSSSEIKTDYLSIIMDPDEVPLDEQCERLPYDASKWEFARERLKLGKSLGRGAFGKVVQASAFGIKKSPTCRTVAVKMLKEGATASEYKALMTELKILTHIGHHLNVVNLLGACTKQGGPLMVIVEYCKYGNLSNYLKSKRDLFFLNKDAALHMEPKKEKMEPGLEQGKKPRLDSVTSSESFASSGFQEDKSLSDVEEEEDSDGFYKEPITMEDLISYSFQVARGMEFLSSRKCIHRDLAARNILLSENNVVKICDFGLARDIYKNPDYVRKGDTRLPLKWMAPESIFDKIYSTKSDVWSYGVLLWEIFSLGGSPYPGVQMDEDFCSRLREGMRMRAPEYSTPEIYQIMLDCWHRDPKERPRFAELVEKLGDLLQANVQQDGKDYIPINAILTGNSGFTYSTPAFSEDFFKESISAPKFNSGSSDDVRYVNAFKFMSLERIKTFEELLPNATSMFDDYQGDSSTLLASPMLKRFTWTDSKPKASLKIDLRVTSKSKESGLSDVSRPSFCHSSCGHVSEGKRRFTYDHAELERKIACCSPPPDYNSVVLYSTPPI

Molecule: LK-VRB-2f: full length 1–165 VEGF variant with D63S/G65M/L66R
phosphorylation of ERK1 and ERK2 [1]: triggered phosphorylation of ERK1 and ERK2
PLC-gamma phosphorylation (PLC-gamma in HUVEC cells): able to stimulate PLC-gamma phosphorylation to a similar extent
promotion of HUVEC cell migration (HUVEC cells): as effective as the native VEGF
induction of corneal angiogenesis (corneal angiogenesis): as efficient as native VEGF in inducing corneal angiogenesis
p38 phosphorylation [2]: able to stimulate p38 phosphorylation

binding to Flt-1-transfected cells [3]: slightly improved binding
fold reduced KDR-binding affinity (RIA) (KDR receptor): at least 470 fold
binding to KDR-transfected NIH3T3 cells [5]: no detectable binding
B1: Flt-sel: VEGF (1–109) variant with alanine substitutions at Ile 43, Ile 46, Gln 79 and Ile 83; Flt-1 selective (protein)
chain: APMAEGGGQNHHEVVKFMDVYQRSYCHPIETLVDIFQEYPDEAEYAFKPSCVPLMRCGGCCNDEGLECVPTEESNITMAIMRAKPHQGQHIGEMSFLQHNKCECRPKKD
stimulation of MMP-9 secretion [4]: fully active
affinity for Flt-1 compared to native protein (RIA) (Flt-1 receptor): essentially identical to that of the native protein
